Laboratory results published in publication PMC5688156, “The natural product carolacton inhibits folate-dependent C1 metabolism by targeting FolD/MTHFD” (Nature Communications, 2017).
“And” between values parts separate entries of the source, which are not always exact repeats. Equal entries are not always repeated.

Columns and labels:
spFolD [1] = molecular target: T1, spFolD (Streptococcus pneumoniae serotype 4, UniProt Q97RI9); test: spFolD cyclohydrolase (CYH) enzyme assay; format: biochemical, S. pneumoniae
T1 construct: His-tag (TEV-cleavable, vector pHis-TEV); made in house; host or cells: E. coli BL21 (DE3)
Method: (§1) (6R,S)-5,10-Methylene-5,6,7,8-tetrahydrofolic acid ((6R,S)-5,10-CH2-THF) calcium salt and (6R,S)-5,10-Methenyl-5,6,7,8-tetrahydrofolic acid ((6R,S)-5,10-CH=THF) chloride were purchased from Schircks Laboratories (Bauma, Switzerland) and used as substrates for FolD dehydrogenase and cyclohydrolase enzyme assays, respectively. Only the R-isomer, which accounts for 50% of (6R,S)-5,10-CH2-THF and (6R,S)-5,10-CH=THF, respectively, is used by the enzyme. (6R,S)-5,10-CH2-THF was dissolved in N2-spargeled basic buffer (50 mM Tris-HCl (pH 8.0), 100 mM β-mercaptoethanol) as described by Varshney et al.[25]. (6R,S)-5,10-CH=THF was dissolved in DMSO as a 100 mM stock solution.
(§2) Because FolD is a bifunctional enzyme, dehydrogenase and cyclohydrolase activities were determined for FolD enzyme kinetics, respectively. The dehydrogenase activity of FolD was assayed for its substrate 5,10-CH2-THF and cofactor NADP^+ (in the case of MTHFD2, NAD^+ was used as the cofactor) based on monitoring the formation of 5,10-CH=THF, while the cyclohydrolase activity of FolD was determined for its substrate 5,10-CH=THF by monitoring the hydrolysis of […]. The enzyme kinetics for the dehydrogenase activity of all FolDs except hsMTHFD1_DC were determined at 30 °C in 50 mM Tris-HCl (pH 7.5), 30 mM β-mercaptoethanol. The hsMTHFD1_DC dehydrogenase activity was measured in 25 mM MOPS (pH 7.3), 30 mM β-mercaptoethanol at 30 °C. […] To monitor the formation of 5,10-CH=THF, the absorbance of the reaction mixture was monitored at 350 nm in micro UV cuvettes (BRAND, Essex, Connecticut, USA). The concentration of 5,10-CH=THF produced in the reaction was determined using an extinction co-efficient of 0.0249 μM^−1 cm^−1. […] The consumption of 5,10-CH=THF was measured by recording the absorbance of the reactions at 355 nm using the TECAN Infinite 200 PRO equipped with a monochromator. […] The inhibition constants (K i) of carolacton on FolD were determined by measuring the apparent K m when adding certain amounts of carolacton to the enzyme reactions. […]

spFolD [2] = molecular target: T1, spFolD; test: SPR binding to spFolD; parameters: species or system S. pneumoniae
Method: All surface plasmon resonance (SPR) experiments described in this study were performed on a Biacore X100 system. Different FolDs with or without His-tag were coupled on CM5 sensor chips (GE Healthcare) by the amine coupling method using a kit from GE Healthcare Life Sciences (Freiburg, Germany). A pH scouting process was performed before protein immobilization to test the most appropriate buffer and the protein concentration for protein coupling. Finally, 20 μg/mL of ecFolD in 10 mM maleate buffer (pH 6.8), 30 μg/mL of ecFolD Q98H in 10 mM maleate buffer (pH 6.3), 40 μg/mL of ecFolD K54N in 10 mM maleate buffer (pH 5.8), 20 μg/mL of spFolD in 10 mM maleate buffer (pH 6.0) and 15 μg/mL of MTHFD2 (His-tag cleaved) in 10 mM maleate buffer (pH 6.8) were used for coupling. In the protein immobilization procedure, the contact time was calculated based on the pH scouting results to achieve ~3000–5000 relative resonance units (RU). The buffer used in the SPR assays was 1× HBS-P buffer (10 mM HEPES pH 7.4, 150 mM NaCl, 0.05% Tween 20). The 1 mM stock solution of carolacton was prepared in 1× HBS-P buffer and diluted to different concentration ranges by two-fold serial dilution. In the SPR assay, the association time was 180 s and the dissociation time was 600 s. Data analysis was performed using the Biacore evaluation software. […]

ecFolD Q98H = molecular target: T2, ecFolD Q98H (Escherichia coli, UniProt P24186, Q98H); test: ecFolD Q98H mutant dehydrogenase (DH) enzyme assay; format: biochemical, E. coli
T2 construct: His-tag (TEV-cleavable, vector pHis-TEV); made in house; host or cells: E. coli BL21 (DE3)
Method: as §1
Because FolD is a bifunctional enzyme, dehydrogenase and cyclohydrolase activities were determined for FolD enzyme kinetics, respectively. The dehydrogenase activity of FolD was assayed for its substrate 5,10-CH2-THF and cofactor NADP^+ (in the case of MTHFD2, NAD^+ was used as the cofactor) based on monitoring the formation of 5,10-CH=THF, while the cyclohydrolase activity of FolD was determined for its substrate 5,10-CH=THF by monitoring the hydrolysis of […]. The enzyme kinetics for the dehydrogenase activity of all FolDs except hsMTHFD1_DC were determined at 30 °C in 50 mM Tris-HCl (pH 7.5), 30 mM β-mercaptoethanol. […]

ecFolD = molecular target: T3, ecFolD (Escherichia coli, UniProt P24186); test: ecFolD cyclohydrolase (CYH) enzyme assay; format: biochemical, E. coli
T3 construct: His-tag (TEV-cleavable, vector pHis-TEV); made in house; host or cells: E. coli BL21 (DE3)
Method: as §1, §2

T1 sequence (Q97RI9 whole entry): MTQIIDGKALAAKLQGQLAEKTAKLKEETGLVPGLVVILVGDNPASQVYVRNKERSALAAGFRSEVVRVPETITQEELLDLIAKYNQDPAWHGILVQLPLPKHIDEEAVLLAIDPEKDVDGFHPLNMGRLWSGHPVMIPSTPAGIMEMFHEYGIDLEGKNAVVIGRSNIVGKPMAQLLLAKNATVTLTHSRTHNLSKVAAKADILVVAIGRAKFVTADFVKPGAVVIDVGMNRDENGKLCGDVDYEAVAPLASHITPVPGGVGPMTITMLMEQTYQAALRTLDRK

## CO[C@H](CC(=O)O)[C@@H](C)C(=O)[C@H](C)/C=C(\C)[C@H]1OC(=O)[C@H](O)[C@H](O)/C=C/[C@H](C)CCC[C@@H]1C [carolacton]
spFolD [1]; 5 nM enzyme, read-out: IC50, carolacton inhibition on CYH activity
  IC50: 38.1 nM
spFolD [1]; 5 nM enzyme, read-out: IC80, carolacton inhibition on CYH activity
  IC80: 101 nM
spFolD [1]; vs 5,10-CH=THF, read-out: Ki (5,10-CH=THF), carolacton inhibition on CYH activity
  Ki: 38.1 nM
spFolD [2]
  Kd: 27 nM
  koff: 0.0316 s⁻¹
ecFolD Q98H
  IC50: 313 nM
ecFolD Q98H; read-out: IC80, carolacton inhibition on DH activity
  IC80: 1930 nM
ecFolD
  IC50: 49.8 nM
ecFolD; Ki (5,10-CH=THF), carolacton inhibition on CYH activity, competitive vs substrate 5,10-CH=THF, from apparent KM
  Ki: 32 nM and 31.6 nM
ecFolD; read-out: IC80, carolacton inhibition on CYH activity
  IC80: 180 nM
